# Results from patent US20080139626A1, “Novel Method” (priority 2005, published 2008).
# What was measured:
# [1] = tested on: S. aureus (methicillin-resistant); assay: MIC by broth microdilution; type: cell-based; conditions: N=51; for MIC50 / MIC90: Staphylococcus aureus
# Description: (§1) Whole-cell antimicrobial activity was determined by broth microdilution. Test compounds were dissolved in DMSO and diluted 1:10 in water to produce a 64 mcg/ml stock solution. Using a 96 well microtitre plate, a Microlab AT Plus 2 (Hamilton Co., Reno, Nev.) serially diluted 50 ul of the stock solution into an appropriate broth medium. Staphylococcal isolates were tested using cation adjusted Mueller Hinton broth. For S. pneumonaie testing, the Mueller Hinton broth was supplemented with 5% lysed horse blood and H. influenzae was tested with Haemophilus Test Medium. After the compounds were diluted, a 50 ul aliquot of the test isolate (˜1×10^6 cfu/ml) prepared in normal saline was added to each well of the microtitre plate. The final test concentrations ranged from 0.016-16 ug/mL. Inoculated plates were incubated at 35° C. in ambient air for 18 to 24 hours. The minimum inhibitory concentration (MIC) was determined as the lowest concentration of compound that inhibited visible growth.
# [2] = tested on: S. pneumoniae (macrolide-resistant); assay: MIC by broth microdilution; type: cell-based; conditions: N=552; for MIC50 / MIC90: Streptococcus pneumoniae
# Description: as §1
# [3] = tested on: S. pyogenes (macrolide-resistant); assay: MIC by broth microdilution; type: cell-based; conditions: N=83; for MIC50 / MIC90: Streptococcus pyogenes
# Description: as §1
# [4] = tested on: S. pneumoniae (penicillin-resistant); assay: MIC by broth microdilution; type: cell-based; conditions: N=352; for MIC50 / MIC90: Streptococcus pneumoniae
# Description: as §1
# [5] = tested on: S. pneumoniae (levofloxacin-resistant); assay: MIC by broth microdilution; type: cell-based; conditions: N=13; for MIC50 / MIC90: Streptococcus pneumoniae
# Description: as §1
# [6] = tested on: methicillin resistant S. aureus WCUH29; assay: murine groin abscess infection model, oral efficacy; type: in vivo; conditions: mouse; for reduction of bacterial counts compared to non-treated controls: oral, p≦0.01
# Description: Oral efficacy of Compound A was evaluated in a murine groin abscess infection model caused by a methicillin resistant S. aureus WCUH29. Animals were infected via subcutaneous injection into the groin with 0.5 mL of inoculum (approximately 5.7 log10 cfu/mouse). Groups of mice (n=5) received either Compound A (100, 300 or 600 mg/kg), moxifloxacin (100 mg/kg) or azithromycin (50 mg/kg).
# [7] = tested on: S. aureus Mupirocin^R; assay: MIC by broth microdilution; type: cell-based; conditions: 8 isolates
# Description: as §1
# [8] = tested on: S. aureus Linezolid^R; assay: MIC by broth microdilution; type: cell-based; conditions: 3 isolates
# Description: as §1
# [9] = tested on: S. aureus Tetracycline^R; assay: MIC by broth microdilution; type: cell-based; conditions: 6 isolates
# Description: as §1
# [10] = tested on: S. aureus Meth^R/Ery^R; assay: MIC by broth microdilution; type: cell-based; conditions: 10 isolates
# Description: as §1
# [11] = tested on: S. pneumoniae Eryth^R; assay: MIC by broth microdilution; type: cell-based; conditions: 5 isolates
# Description: as §1
# [12] = tested on: H. influenzae ClarR; assay: MIC by broth microdilution; type: cell-based; conditions: 5 isolates
# Description: as §1
# [13] = tested on: S. aureus VRSA (vanc MIC > 4 μg/mL); assay: MIC by broth microdilution; type: cell-based; conditions: 2 isolates
# Description: as §1
# [14] = tested on: S. aureus VISA (vanc. MIC 4 μg/mL); assay: MIC by broth microdilution; type: cell-based; conditions: 4 isolates
# Description: as §1
# [15] = tested on: S. pneumoniae Cipro^R; assay: MIC by broth microdilution; type: cell-based; conditions: 5 isolates
# Description: as §1
# [16] = tested on: S. aureus Ketek^R; assay: MIC by broth microdilution; type: cell-based; conditions: 4 isolates
# Description: as §1
# [17] = tested on: H. influenzae BLNAR; assay: MIC by broth microdilution; type: cell-based; conditions: 5 isolates
# Description: as §1
# [18] = tested on: S. epidermidis Meth^R; assay: MIC by broth microdilution; type: cell-based; conditions: 6 isolates
# Description: as §1
# [19] = tested on: S. pneumoniae Pen^R; assay: MIC by broth microdilution; type: cell-based; conditions: 5 isolates
# Description: as §1
MIC50 [1] [µg/mL],MIC90 [1] [µg/mL],MIC50 [2] [µg/mL],MIC90 [2] [µg/mL],MIC50 [3] [µg/mL],MIC90 [3] [µg/mL],MIC50 [4] [µg/mL],MIC90 [4] [µg/mL],MIC50 [5] [µg/mL],MIC90 [5] [µg/mL],MIC Range [2],MIC Range [3],MIC Range [4],MIC Range [5],SMILES,also measured
> 16,> 16,> 16,> 16,16,> 16,> 16,> 16,16,> 16,–,–,–,–,CC[C@H]1OC(=O)[C@H](C)[C@@H](O[C@H]2C[C@@](C)(OC)[C@@H](O)[C@H](C)O2)[C@H](C)[C@@H](O[C@@H]2O[C@H](C)C[C@H](N(C)C)[C@H]2O)[C@](C)(O)C[C@@H](C)CN(C)[C@H](C)[C@@H](O)[C@]1(C)O [Azithromycin],reduction of bacterial counts ([6]; 50 mg/kg): 3.4 log10 cfu/abscess
4,> 32,4,8,≤ 0.015,≤ 0.015,4,8,2,8,≦0.015-32 μg/mL,≦0.015-0.12 μg/mL,1 to 32 µg/mL,≦0.015-8 μg/mL,CO/N=C(\C(=O)N[C@@H]1C(=O)N2C(C(=O)O)=C(COC(N)=O)CS[C@H]12)c1ccco1 [Cefuroxime],–
1,1,0.25,0.25,0.25,0.25,0.25,0.25,0.25,0.5,0.015 to 1 µg/mL,0.12 to 0.25 µg/mL,0.03 to 1 µg/mL,0.12 to 0.5 µg/mL,C=C[C@]1(C)C[C@@H](OC(=O)NC(=O)c2cnc(OC)c(N)c2)[C@]2(C)C(C)CC[C@]3(C[C@H](O)C(=O)[C@H]32)[C@@H](C)[C@@H]1O (stereo partly shown) [Compound A],MIC Range [7]: 0.25 to 1 µg/mL; MIC Range [8]: 2 µg/mL; MIC Range [9]: 0.5 to 2 µg/mL; MIC Range [10]: 0.5 to 2 µg/mL; MIC Range [11]: 0.125 to 0.25 µg/mL; MIC Range [12]: 4 to 8 µg/mL; MIC Range [13]: 0.5 µg/mL; MIC Range [14]: 0.5 to 4 µg/mL; MIC Range [15]: 0.125 to 0.25 µg/mL; MIC Range [1]: 0.25 to 2 µg/mL; MIC Range [16]: 0.5 to 4 µg/mL; MIC Range [17]: 2 µg/mL; MIC Range [18]: 0.25 to 1 µg/mL; MIC Range [19]: 0.06 to 0.25 µg/mL; reduction of bacterial counts compared to non-treated controls ([6]; 300 mg/kg): 3.6 log10 cfu/abscess; reduction of bacterial counts compared to non-treated controls ([6]; 600 mg/kg): 4.3 log10 cfu/abscess
0.5,> 8,1,2,0.5,1,1,1,> 8,> 8,–,0.12 to 2 µg/mL,–,–,C[C@H]1COc2c(N3CCN(C)CC3)c(F)cc3c(=O)c(C(=O)O)cn1c23 [Levofloxacin],–
0.12,4,0.12,0.25,0.12,0.25,0.12,0.25,4,8,–,0.06 to 0.5 µg/mL,–,–,COc1c(N2C[C@@H]3CCCN[C@@H]3C2)c(F)cc2c(=O)c(C(=O)O)cn(C3CC3)c12 [Moxifloxacin],reduction of bacterial counts ([6]; 100 mg/kg): 4.6 log10 cfu/abscess
0.25,> 16,0.25,2,0.03,8,0.25,2,0.12,0.5,≦0.002-16 μg/mL,–,≦0.002-16 μg/mL,≦0.002-2 μg/mL,CC[C@H]1OC(=O)[C@H](C)C(=O)[C@H](C)[C@@H](O[C@@H]2O[C@H](C)C[C@H](N(C)C)[C@H]2O)[C@](C)(OC)C[C@@H](C)C(=O)[C@H](C)[C@H]2N(CCCCn3cnc(-c4cccnc4)c3)C(=O)O[C@]12C [Telithromycin],–
